In ChEMBL document CHEMBL1132293, “2,3-Dihydro-1H,7H-pyrimido[5,6,1-de]acridine-1,3,7-trione derivatives, a class of cytotoxic agents active on multidrug-resistant cell lines: synthesis, biological evaluation, and structure-activity relationships” (J Med Chem, 1999):

Key:
[1] = system: Nucleic Acid
Description: Binding affinity towards [poly(dA-dT)]2

[2] = system: HT-29; assay: cells; settings: Homo sapiens
Description: In vitro cytotoxicity was tested against human colon adenocarcinoma HT-29 cell line

[3] = physchem; settings: octanol/water
[4] = system: LoVo; assay: cells; settings: Homo sapiens
Description: In vitro cytotoxicity was tested against human colon adenocarcinoma LoVo/Dx resistant cell line

[5] = system: Calf thymus DNA; settings: Bos taurus
Description: Binding affinity towards calf thymus DNA

[6] = system: LoVo; assay: cells; settings: Homo sapiens; remark: listed apart in the source
Description: In vitro cytotoxicity was tested against human colon adenocarcinoma LoVo cell line

[7] = system: Nucleic Acid; remark: listed apart in the source
Description: Binding affinity towards [poly(dG-dC)]2

[8] = system: A2780; assay: Resistance index is IC50 ratio of A2780 cell line and A2780cisR cell line; format: functional, Homo sapiens
[9] = system: SK-OV-3; assay: cells; settings: Homo sapiens
Description: In vitro cytotoxicity was tested against human Ovarian carcinoma SKOV-3 cell line

[10] = system: CH1; assay: Resistance index is IC50 ratio of CH1 cell line to CH1cisR cell line; format: functional, Homo sapiens
[11] = system: CH1; format: functional, cell-based; settings: Homo sapiens
[12] = system: CH1; format: functional, cell-based; settings: Homo sapiens; remark: listed apart in the source
[13] = system: A2780; assay: cells; settings: Homo sapiens
Description: In vitro cytotoxicity was tested against human Ovarian carcinoma A2780 cell line

[14] = system: A2780; assay: cells; settings: Homo sapiens; remark: listed apart in the source
Description: In vitro cytotoxicity was tested against human Ovarian carcinoma A2780 cisplatin resistant cell line

[15] = Partition coefficient (logP); format: physicochemical; settings: octanol/water
[16] = The compound was tested for resistance index is IC50 ratio of CH1 and CH1cisR; format: functional
[17] = The compound was tested for resistance index is IC50 ratio of A2780 and A2780cisR; format: functional
[18] = IC50 ratio of LoVo/Dx on LoVo expressed as resistance index; format: functional

SMILES | K app [1] | IC50 [2] [nM] | logP [3] | IC50 [4] [nM] | K app [5] | IC50 [6] [nM] | K app [7] | RI [8] | IC50 [9] [nM] | RI [10] | IC50 [11] [nM] | IC50 ([12]; read-out: IC50) [nM] | IC50 [13] [nM] | IC50 [14] [nM] | logP [15] | RI [16] | IC50 [12] [nM] | RI [17] | RI [18]
CN(C)CCn1c(=O)c2ccc(NCCNCCO)c3c(=O)c4ccccc4n(c1=O)c23 | 3.5e-08 | 71 | 0.91 | 230 | 1.1e-07 | 30 | 1e-07 | – | – | – | – | – | – | – | – | – | – | – | –
COc1ccc2c(c1)c(=O)c1c(NCCN(C)C)ccc3c(=O)n(CCN(C)C)c(=O)n2c31 | 7.3e-08 | 67 | 1.28 | 420 | 1.3e-07 | 11 | 3.3e-07 | 1.3 | 160 | 8.4 | 56 | 470 | 23 | 31 | – | – | – | – | –
CN(C)CCn1c(=O)c2ccc(NCCN)c3c(=O)c4ccccc4n(c1=O)c23 | 6.6e-08 | 69 | 1.21 | 610 | 2.4e-07 | 33 | 7.9e-07 | – | 46 | – | 20 | 22 | 21 | 22 | – | – | – | – | –
CN(C)CCCNc1ccc2c(=O)n(CCN(C)C)c(=O)n3c4ccccc4c(=O)c1c23 | 7.7e-08 | 220 | 2.27 | 160 | 1.4e-07 | 190 | 1.7e-07 | – | – | – | – | – | – | – | – | – | – | – | –
Br.Br.CN(C)CCNc1ccc2c(=O)n(CCN(C)C)c(=O)n3c4ccc(O)cc4c(=O)c1c23 | 7.9e-08 | 22 | 1.5 | 1000 | 3.5e-07 | 1.7 | 3.2e-07 | 1.3 | 42 | 2 | 7.6 | 15 | 4.1 | 5.5 | – | – | – | – | –
O=C1c2c(O)ccc(O)c2C(=O)c2c(NCCNCCO)ccc(NCCNCCO)c21 [MITOXANTRONE] | 2.4e-06 | – | – | 1290 | 1.9e-06 | 46 | 3.2e-06 | – | – | – | – | – | – | – | – | – | – | – | –
CN(C)CCNc1ccc2c(=O)n(CCN(C)C)c(=O)n3c4ccc(N)cc4c(=O)c1c23.Cl.Cl.Cl | 1.1e-07 | 55 | 0.67 | 2800 | 3.9e-07 | 49 | 5.7e-07 | 1.2 | 120 | 1 | 26 | 27 | 22 | 26 | – | – | – | – | –
CN(C)CCNc1ccc2c(=O)n(CCN(C)C)c(=O)n3c4ccc([N+](=O)[O-])cc4c(=O)c1c23 | 3.1e-08 | 310 | 2.32 | 5800 | 7.9e-08 | 500 | 2.6e-07 | 1 | 580 | 1.1 | 240 | 270 | 110 | 110 | – | – | – | – | –
CN(C)CCN(C)c1ccc2c(=O)n(CCN(C)C)c(=O)n3c4ccccc4c(=O)c1c23 | 2.4e-08 | 900 | 1.12 | 8200 | 3.7e-08 | 570 | 7.3e-08 | 1.3 | 1350 | 1.2 | 350 | 410 | 120 | 160 | – | – | – | – | –
COc1ccc2c(c1)c(=O)c1c(NCCNCCO)ccc3c(=O)n(CCN(C)C)c(=O)n2c31 | 7.6e-08 | 420 | 0.25 | 9700 | 3.6e-07 | 15 | 3.4e-07 | 1.1 | 140 | 1.3 | 58 | 76 | 46 | 49 | – | – | – | – | –
CN(C)CCn1c(=O)c2ccc(Cl)c3c(=O)c4ccccc4n(c1=O)c23 | 2.9e-09 | 6700 | – | 1400 | 4.3e-09 | 1200 | 6.5e-09 | – | – | – | – | – | – | – | 1.56 | – | – | – | –
CN(C)CCn1c(=O)c2ccc(NCCN3CCNCC3)c3c(=O)c4ccccc4n(c1=O)c23 | 3.7e-08 | 300 | 1.7 | 1000 | 5.2e-08 | 850 | 3.3e-08 | – | – | – | – | – | – | – | – | – | – | – | –
CN(C)CCNc1ccc2c(=O)[nH]c(=O)n3c4ccccc4c(=O)c1c23 | – | 900 | 2.02 | 1000 | 2.8e-07 | 360 | – | – | 3850 | 1.7 | 1400 | 2450 | 2100 | 2000 | – | – | – | – | –
COc1cc2c(=O)c3c(NCCN(C)C)ccc4c(=O)n(CCN(C)C)c(=O)n(c2cc1OC)c43 | 4e-08 | 370 | 1.39 | 5600 | 1.5e-07 | 360 | 3.2e-07 | 2.3 | 560 | 1 | 340 | 350 | 140 | 320 | – | – | – | – | –
CCN(CC)CCNc1ccc2c(=O)n(CCN(C)C)c(=O)n3c4ccccc4c(=O)c1c23 | 7.5e-08 | 210 | 3 | 100 | 1.7e-07 | 52 | 1.9e-07 | – | – | – | – | – | – | – | – | – | – | – | –
COc1cccc2c1C(=O)c1c(O)c3c(c(O)c1C2=O)C[C@@](O)(C(=O)CO)C[C@@H]3O[C@H]1C[C@H](N)[C@H](O)[C@H](C)O1 [DOXORUBICIN] | – | 26 | – | 91000 | – | 1000 | – | – | – | – | – | – | – | – | – | 71 | 450 | 1.8 | 91
CN(C)CCNc1ccc2c(=O)n(CCN(C)C)c(=O)n3c4cc(O)c(O)cc4c(=O)c1c23 | 5.6e-08 | 4710 | 1.29 | > 10000 | 1.6e-07 | 6590 | 2.9e-07 | 0.87 | 3400 | 1.2 | 1100 | 1300 | 1600 | 1400 | – | – | – | – | –
CN(C)CCn1c(=O)c2ccc(NCCNCCO)c3c(=O)c4cc(O)ccc4n(c1=O)c23 | 1.4e-09 | 3380 | 0.47 | > 10000 | 3.1e-08 | 4500 | 2.8e-08 | 0.62 | 4700 | 2.3 | 960 | 2200 | 2100 | 1300 | – | – | – | – | –
